Series [1] has as its system MDA-MB-436 cells with BRCA1 mutation. The experiment in a line: Anti-proliferation study on MDA-MB-436 cells (CellTiter-Glo). It is filed as cell-based. The settings on record: Homo sapiens, MDA-MB-436, 168 h; 7 days incubation. On the procedure: Materials: test compounds; RPMI-1640 medium; fetal bovine serum; penicillin/streptomycin antibiotic; MDA-MB-436 cells; Envision Multimode Plate Reader (PerkinElmer). MDA-MB-436 cells were seeded in a white 96-well plate by adding 80 μL of cell suspension (containing 3000 MDA-MB-436 cells) to each well. The cell plate was incubated in a CO2 incubator overnight. The test compounds were serially 5-fold diluted to the 8th concentration with a multichannel pipette, i.e., from 2 mM to 26 nM, in duplicate. 78 μL of medium was added to an intermediate plate, and the serially diluted compound was transferred to the intermediate plate at 2 μL per well. After being mixed well, the mixture was transferred to the cell plate at 20 μL per well. […] Another cell plate was provided for reading signal values on the day of compound addition and these signal values were used as Max values in data analysis. Promega CellTiter-Glo was added to the cell plate at 25 μL per well and the luminescence signals were stabilized by incubation for 10 min at room temperature. Readings were taken using a PerkinElmer Envision Multimode Plate Reader. […]

The nature of series [2]: Accelerated stability test at 40° C.±2° C. and 75±5% RH. It is filed as physicochemical. The settings on record: 40° C. ± 2° C./75 ± 5% RH. On the procedure: 2. Accelerated Test • Examination conditions: Samples of crystalline form A of the compound of formula (I) were packed into double-layer pharmaceutical low-density polyethylene bags. Each layer of the pharmaceutical low-density polyethylene bag was sealed, then the bags were put into aluminum foil bags, and the aluminum foil bags were heat-sealed. Accelerated test was conducted at 40° C.±2° C. and 75±5% RH.

Series [3] in a line: Preliminary stability examination at 60° C. and 75% humidity. It is filed as physicochemical. The settings on record: 60° C. 75% RH. As for the experimental part: 1. Preliminary Stability Examination • Examination conditions: The stability of crystalline form A and crystalline form B was simultaneously examined at 60° C. and 75% humidity.
A short description of series [4]: Single-dose pharmacokinetic study in mice. It is filed as in vivo, male C57BL/6 mice. As for the experimental part: Objectives: To evaluate the pharmacokinetic behavior in male C57BL/6 mice and to determine the drug concentrations of the compound in the plasma, liver and cerebrospinal fluid after a single dose.
Procedures: Healthy adult male C57BL/6 mice were selected for intragastric administration. The candidate compound was mixed with an appropriate amount of 10% DMSO/90% (20% hydroxypropyl-@-cyclodextrin), vortexed and sonicated to prepare a 0.5 mg/mL clear solution for later use. After the mice were administered intravenously at 1 mg/kg and orally at 5 mg/kg, whole blood was collected at certain time points. Plasma was separated, and liver and cerebrospinal fluid were collected. After pretreatment of the samples, the drug concentration was measured by LC-MS/MS, and pharmacokinetic parameters were calculated using Phoenix WinNonlin software.

As usually defined, the IC50 is the concentration that inhibits the measured activity by half. Low values mean greater potency, high ones weaker potency. In general, half-life refers to the time needed for the level to fall by half in the phase considered.

Like-named read-outs stand apart in the source and are kept apart here.

`C[C@]1(c2ccc(-c3[nH]c4cc(F)cc5c4c3CONC5=O)cc2)CCCN1.Cl` [Crystalline form A] came in with an IC50 in series [1] of 8.4 nM. In addition, in series [2] (Initial values), the Appearance result is on record as “Earthy yellow”, the Content was 98.0%, the Isomer result is “Not detectable” and the Total impurities is listed as 0.45%. The molecule further returned a Water content in series [2] (Initial values) of 2.07%. In series [2] (Month 1), the Appearance entry is “Earthy yellow”, the Content is reported as 96.2%, the Isomer entry is “Not detectable” and the Total impurities turned out to be 0.75%. In addition, the Water content in series [2] (Month 1) worked out at 2.50%. Besides, in series [2] (Month 2), the Appearance entry was “Earthy yellow”, the Content was determined as 96.9%, the Isomer result is “Not detectable” and the Total impurities worked out at 0.78%. Further, in series [2] (Month 2), the Water content is listed as 2.26%. In series [2] (Month 3), the Appearance result was “Earthy yellow”, the Content came out at 96.9%, the Isomer result is reported as “Not detectable” and the Total impurities is 0.62%. The Water content in series [2] (Month 3) is on record as 1.89%. In series [2] (Month 6), the Appearance entry is “Earthy yellow”, the Content is reported as 97.5%, the Isomer entry was “Not detectable” and the Total impurities turned out to be 0.93%. For the same molecule, in series [2] (Month 6), the Water content was determined as 2.14%. Moreover, in series [3], the “Preliminary stability examination (content, %) Day 0” value is 99.73% and the “Preliminary stability examination (content, %) Day 10” value is reported as 99.72%.
As for `C[C@]1(c2ccc(-c3[nH]c4cc(F)cc5c4c3CONC5=O)cc2)CCCN1.Cl` [Crystalline form B], in series [3], the “Preliminary stability examination (content, %) Day 0” value was 99.09% and the “Preliminary stability examination (content, %) Day 10” value worked out at 98.93%.
For `CNCc1ccc(-c2[nH]c3cc(F)cc4c3c2CCNC4=O)cc1` [Rucaparib, reference compound], the Maximum concentration in series [4] (IV: 1 mg/kg PO: 5 mg/kg) amounted to 24.8 nM. Also, the AUC(0-t) in series [4] (male, C57BL/6, mouse, plasma, IV 1 mg/kg, read-out: AUC0-last (intravenous injection)) was 0.255 µM·h; in series [4] (male, C57BL/6, mouse, plasma, PO 5 mg/kg, read-out: AUC0-last (oral)), 0.145 µM·h. The half-life in series [4] (male, C57BL/6, mouse, plasma, IV: 1 mg/kg PO: 5 mg/kg) was 1.78 h.

Source of the values: patent US20230331739A1, “INDOLO HEPTAMYL OXIME ANALOG CRYSTAL AS PARP INHIBITOR AND METHOD FOR PREPARING SAME” (CHIA TAI TIANQING PHARMACEUTICAL GROUP CO., LTD., priority 2020, published 2023).
